In data set [1] the test system is MCF7. Briefly: Antiproliferative activity against human MCF7 cells assessed as growth rate at 10 uM incubated for 48 hrs by MTT assay relative to control. The format is functional. The settings on record: read-out: Activity. (In general: Tetrazolium assays rely on reduction of a dye to a coloured formazan, in cell work by metabolically active cells.)
The test system of data set [2] is HUVEC. Kind of data set: Antiangiogenic activity in confluent VEGF stimulated HUVEC cells assessed as relative cell migration rate at 20 uM incubated for 48 hrs by Hoechst 33342 staining based wound healing assay relative to control. The format is functional, Homo sapiens.
Data set [3] relates to SK-MEL-28. Kind of data set: Antiproliferative activity against human SK-MEL-28 cells assessed as growth rate at 10 uM incubated for 48 hrs by MTT assay relative to control. Format: functional. The settings on record: read-out: Activity.
In data set [4] the test system is SK-BR-3. Briefly: Antiproliferative activity against human SK-BR-3 cells assessed as growth rate at 10 uM incubated for 48 hrs by MTT assay relative to control. The settings on record: read-out: Activity. The format is functional.
The test system of data set [5] is HeLa. Kind of data set: Antiproliferative activity against human HeLa cells assessed as growth rate at 10 uM incubated for 48 hrs by MTT assay relative to control. Format: functional. The settings on record: read-out: Activity.
The test system of data set [6] is HFF. Kind of data set: Antiangiogenic activity in confluent HFF cells assessed as inhibition of cell migration at 20 uM incubated for 24 to 48 hrs by Hoechst 33342 staining based wound healing assay. The format is functional. The settings on record: Homo sapiens, time 24-48 hrs.
For data set [7], the system named is MDA-MB-231. Kind of data set: Antiproliferative activity against human MDA-MB-231 cells assessed as growth rate at 10 uM incubated for 48 hrs by MTT assay relative to control. Format: functional. The settings on record: read-out: Activity.
The test system of data set [8] is HUVEC. Kind of data set: Antiangiogenic activity in confluent VEGF stimulated HUVEC cells assessed as relative cell migration rate at 20 uM incubated for 24 hrs by Hoechst 33342 staining based wound healing assay relative to control. The format is functional, Homo sapiens.
Data set [9] relates to SK-OV-3. Kind of data set: Antiproliferative activity against human SK-OV-3 cells assessed as growth rate at 10 uM incubated for 48 hrs by MTT assay relative to control. Format: functional. The note with it: read-out: Activity.
The subject of data set [10] is A549. Briefly: Antiproliferative activity against human A549 cells assessed as growth rate at 10 uM incubated for 48 hrs by MTT assay relative to control. The format is functional. The note with it: read-out: Activity.
For data set [11], the target named is Mitogen-activated protein kinase; ERK1/ERK2 (Homo sapiens) (UniProt P27361+P28482). Briefly: Inhibition of ERK1/2 phosphorylation in serum starved bFGF stimulated HFF cells assessed as residual phosphorylated ERK1/2 level at 20 uM preincubated for 10 mins followed by bFGF addition and measured after 20 mins by Western blotting analysis relative to control. The format is cell-based. The note with it: time 30.0 min.
Mitogen-activated protein kinase; ERK1/ERK2 (Homo sapiens), sequence (P27361 whole entry, looked up): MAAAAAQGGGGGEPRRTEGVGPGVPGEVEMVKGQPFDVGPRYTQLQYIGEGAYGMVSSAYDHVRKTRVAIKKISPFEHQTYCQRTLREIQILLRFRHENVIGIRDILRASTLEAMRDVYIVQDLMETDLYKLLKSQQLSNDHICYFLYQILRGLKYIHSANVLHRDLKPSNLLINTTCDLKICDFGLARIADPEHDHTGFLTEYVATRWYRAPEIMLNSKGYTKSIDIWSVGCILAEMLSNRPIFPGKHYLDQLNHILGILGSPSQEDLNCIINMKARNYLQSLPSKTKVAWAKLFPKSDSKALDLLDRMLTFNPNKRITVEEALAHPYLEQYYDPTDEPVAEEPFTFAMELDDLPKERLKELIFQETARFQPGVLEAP
Mitogen-activated protein kinase; ERK1/ERK2 (Homo sapiens), sequence (P28482 whole entry, looked up): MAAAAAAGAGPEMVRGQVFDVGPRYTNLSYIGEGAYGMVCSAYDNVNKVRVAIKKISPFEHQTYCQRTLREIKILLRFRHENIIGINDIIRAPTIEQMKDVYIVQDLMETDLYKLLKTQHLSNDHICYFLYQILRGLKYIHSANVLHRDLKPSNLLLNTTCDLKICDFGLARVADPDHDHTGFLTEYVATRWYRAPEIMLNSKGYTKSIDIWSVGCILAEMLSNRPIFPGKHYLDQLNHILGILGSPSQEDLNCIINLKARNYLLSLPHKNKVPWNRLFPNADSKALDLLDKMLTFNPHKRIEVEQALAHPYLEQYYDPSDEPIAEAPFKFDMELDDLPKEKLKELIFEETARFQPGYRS

Data set [12] in a line: Cytotoxicity against human GM06114 cells assessed as growth rate at 10 uM incubated for 48 hrs by MTT assay relative to control. The format is toxicity, cell-based. The note with it: gm06114, 48 h.
The test system of data set [13] is HepG2. Kind of data set: Antiproliferative activity against human HepG2 cells assessed as growth rate at 10 uM incubated for 48 hrs by MTT assay relative to control. The format is functional. The settings on record: read-out: Activity.
Data set [14] concerns HUVEC. Kind of data set: Antiangiogenic activity in confluent VEGF stimulated HUVEC cells assessed as inhibition of cell migration at 20 uM incubated for 24 to 48 hrs by Hoechst 33342 staining based wound healing assay. The note with it: Homo sapiens, time 24-48 hrs. The format is functional.
Data set [15] relates to HFF. Kind of data set: Antiangiogenic activity in confluent HFF cells assessed as relative migration rate at 1 uM incubated for 24 hrs by Hoechst 33342 staining based wound healing assay relative to control. Format: functional, Homo sapiens.
In data set [16] the target is RAC-alpha serine/threonine-protein kinase (Homo sapiens) (UniProt P31749). Kind of data set: Inhibition of AKT phosphorylation in serum starved VEGF stimulated HUVEC cells at 20 uM preincubated for 10 mins followed by VEGF addition and measured after 20 mins by Western blotting analysis relative to control. The note with it: time 30.0 min. Format: cell-based. On the technique in general: In western blotting, separated proteins are transferred to a membrane and probed.
RAC-alpha serine/threonine-protein kinase (Homo sapiens), sequence (P31749 whole entry): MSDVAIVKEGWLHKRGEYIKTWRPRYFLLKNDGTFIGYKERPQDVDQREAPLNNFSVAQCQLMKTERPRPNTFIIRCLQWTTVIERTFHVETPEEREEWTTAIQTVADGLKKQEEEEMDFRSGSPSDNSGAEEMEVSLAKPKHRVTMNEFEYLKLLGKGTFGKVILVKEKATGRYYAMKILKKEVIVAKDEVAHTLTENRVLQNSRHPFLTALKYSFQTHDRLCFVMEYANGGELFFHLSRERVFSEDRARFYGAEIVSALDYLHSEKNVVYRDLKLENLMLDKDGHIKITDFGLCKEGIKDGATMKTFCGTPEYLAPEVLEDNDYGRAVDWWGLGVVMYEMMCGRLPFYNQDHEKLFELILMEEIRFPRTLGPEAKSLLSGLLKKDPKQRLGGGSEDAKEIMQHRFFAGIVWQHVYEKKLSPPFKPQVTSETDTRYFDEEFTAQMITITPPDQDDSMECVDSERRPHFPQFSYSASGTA

The subject of data set [17] is HFF. Briefly: Antiangiogenic activity in confluent HFF cells assessed as relative migration rate at 1 uM incubated for 48 hrs by Hoechst 33342 staining based wound healing assay relative to control. Format: functional, Homo sapiens.
Data set [18] concerns the target RAC-alpha serine/threonine-protein kinase (Homo sapiens) (UniProt P31749). Kind of data set: Inhibition of AKT phosphorylation in serum starved VEGF stimulated HUVEC cells at 20 uM preincubated for 10 mins followed by VEGF addition and measured after 20 mins by Western blotting analysis. The format is cell-based. The note with it: time 30.0 min.
The target is the same in data set [19]. Briefly: Inhibition of AKT phosphorylation in serum starved bFGF stimulated HFF cells at 20 uM preincubated for 10 mins followed by bFGF addition and measured after 20 mins by Western blotting analysis. Format: cell-based. The settings on record: time 30.0 min.
Data set [20] has the same target. Kind of data set: Inhibition of AKT phosphorylation in serum starved bFGF stimulated HFF cells assessed as residual activity at 20 uM preincubated for 10 mins followed by bFGF addition and measured after 20 mins by Western blotting analysis relative to control. The format is cell-based. The settings on record: time 30.0 min.
For data set [21], the system named is HFF. Briefly: Antiangiogenic activity in confluent HFF cells assessed as relative migration rate at 20 uM incubated for 48 hrs by Hoechst 33342 staining based wound healing assay relative to control. Format: functional, Homo sapiens.
Data set [22] relates to HFF. Briefly: Antiangiogenic activity in confluent HFF cells assessed as relative migration rate at 20 uM incubated for 24 hrs by Hoechst 33342 staining based wound healing assay relative to control. The format is functional, Homo sapiens.
Data set [23] deals with HFF. Briefly: Antiangiogenic activity in confluent HFF cells assessed as inhibition of cell migration at 20 uM incubated for 24 to 48 hrs by Hoechst 33342 staining based wound healing assay relative to control. On the set-up: scale not given: the % may be the effect or the level left. The settings on record: time 24-48 hrs. Format: functional, Homo sapiens.
The subject of data set [24] is HUVEC. Briefly: Antiangiogenic activity in confluent VEGF stimulated HUVEC cells assessed as inhibition of cell migration at 20 uM incubated for 48 hrs by Hoechst 33342 staining based wound healing assay. The format is functional. The settings on record: Homo sapiens.

Calls of active or inactive are those of the source. The rule behind the calls is not given here.

Usually inhibition stands for the share of the control response that was lost under treatment.

As to `CCOC(=O)c1c(Nc2ccc(Cl)cc2)nn(CC(OC(=O)Nc2cccc(C(F)(F)F)c2)c2ccccc2)c1N` (configuration not stated), the growth at 10 µM in data set [1] turned out to be 128%; in data set [3], 112%; in data set [4], 124%; in data set [5], 65.9%; in [7], 121%; in [9] it was 122%. In addition, the growth at 10 µM in [10] worked out at 89.2%; in data set [13], 120%. The Activity in data set [2] was more than 50%; in [8], more than 50%; in data set [11] it was more than 70%; in data set [12], 131.1%. In addition, the result in data set [6] was inactive.

For `Cc1nc(Nc2ncc(C(=O)Nc3c(C)cccc3Cl)s2)cc(N2CCN(CCO)CC2)n1` [DASATINIB ANHYDROUS], in data set [14], the outcome was inactive. Besides, the Activity in data set [15] amounted to 27.31%; in data set [17], 27.32%. In addition, the inhibition in data set [16] turned out to be 24.1%.

`CCCCC(O)Cn1nc(Nc2ccc(Cl)cc2)c(C(=O)OCC)c1N` (configuration not stated): the growth at 10 µM is 145% in data set [1]; 115% in [3]; 114% in data set [4]; 104% in [5]; 137% in data set [7]; 132% in data set [9]. The growth at 10 µM in data set [10] was 130%; in [13] it was 108%. Further, the result in [14] was inactive. Further, in [6], the outcome was Active. Also, the Activity is more than 70% in data set [11] and 93.96% in data set [12]. Besides, the inhibition result in [18] and in data set [19] was “inactive” in each case.

With `CCOC(=O)c1c(Nc2ccc(Cl)cc2)nn(CC(O)c2ccccc2)c1N` (configuration not stated), the growth at 10 µM in data set [1] was 125%; in data set [3], 131%; in data set [4] it was 119%; in data set [5], 77.6%; in data set [7], 127%; in [9] it was 114%. The growth at 10 µM came to 116% in data set [10] and 102% in data set [13]. Moreover, in data set [14], the result was inactive. This compound registered an inhibition in data set [16] of 21%. The Activity in data set [20] was 27.3%; in [11], more than 70%; in data set [12], 113.67%; in [21], less than 55%; in [22], less than 40%.

Turning to `CCCC(O)Cn1ncc(C(=O)OCC)c1NC(=O)Nc1cccc(C(F)(F)F)c1` (configuration not stated), in [14], the result was inactive. In addition, in [16], the inhibition stood at 59.1%. The Activity was found to be 56.54% in [8], 55.9% in [20], 31.37% in [21] and 40.31% in [22].

As to `CCOC(=O)c1c(Nc2ccccc2)nn(CC(OC(=O)Nc2cccc(C(F)(F)F)c2)c2ccccc2)c1N` (configuration not stated), the growth at 10 µM in [1] worked out at 124%; in data set [3], 115%; in [4] it was 125%; in data set [5] it was 60.6%; in data set [7], 113%; in data set [9], 120%. The growth at 10 µM in data set [10] came to 82.9%; in data set [13], 117%. In addition, the outcome in data set [14] was inactive. The same compound showed an inhibition in [16] of 34.2%. The Activity in data set [11] was more than 70%; in data set [23], less than 60%; in data set [12] it was 126.08%.

`CCCCC(Cn1nc(Nc2ccccc2Cl)c(C(=O)OCC)c1N)OC(=O)Nc1cccc(C(F)(F)F)c1` (configuration not stated): the growth at 10 µM in data set [1] is 142%; in data set [3], 121%; in data set [4] it was 106%; in data set [5], 84.3%; in data set [7] it was 133%; in [9], 127%. The growth at 10 µM in data set [10] is 109%; in [13], 110%. The result in data set [14] was inactive. Besides, the Activity is more than 70% in [11], less than 60% in data set [23] and 92.97% in [12]. Also, the inhibition entry in data set [19] is “inactive”.

Consider `CCCCC(O)Cn1nc(Nc2ccccc2Cl)c(C(=O)OCC)c1N` (configuration not stated), for which the growth at 10 µM in [1] was 140%; in [3] it was 109%; in data set [4], 103%; in data set [5], 104%; in [7], 126%; in data set [9], 125%. In addition, the growth at 10 µM in [10] was 138%; in data set [13] it was 102%. In [24], the result was inactive. Moreover, the result in data set [6] was Active. Further, the results for the Activity in data set [8], in data set [11] and in [12] were 47.74%, more than 70% and 92.72%, respectively. For the same compound, the inhibition entry in data set [19] was “Active”.

These data come from ChEMBL document CHEMBL5634087, “Novel 5-aminopyrazoles endowed with anti-angiogenetic properties: Design, synthesis and biological evaluation” (Eur J Med Chem, 2023).
